Several values for one entry are separate records, joined by “and”; a condition that tells them apart may be missing. Equal entries are not always repeated. Inconclusive results and toxic doses are left out.
System: L1210 leukemia ip in BDF1 mice, survival T/C
Test: NCI In Vivo Anticancer Drug Screen. Data for tumor model L1210 Leukemia (intraperitoneal) in B6D2F1 (BDF1) mice
Conditions: endpoint: mean survival time, higher = longer survival
Summary of the method: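 Tumor cells were implanted, animals were treated, and survival was followed. The result divides the treated measurement by the vehicle-control measurement.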

[1] = dose: 50.0 mg/kg/injection, schedule: Q01DX009 (ip), vehicle: saline with Tween-80
[2] = dose: 100.0 mg/kg/injection, schedule: Q01DX009 (ip), vehicle: saline with Tween-80
[3] = dose: 200.0 mg/kg/injection, schedule: Q01DX009 (ip), vehicle: saline with Tween-80
[4] = dose: 100.0 mg/kg/injection, schedule: Q04DX002 (ip), vehicle: saline
[5] = dose: 100.0 mg/kg/injection, schedule: Q01DX001 (ip), vehicle: Klucel (hydroxypropylcellulose) (HPC)
[6] = dose: 200.0 mg/kg/injection, schedule: Q01DX001 (ip), vehicle: Klucel (hydroxypropylcellulose) (HPC)
[7] = dose: 400.0 mg/kg/injection, schedule: Q01DX001 (ip), vehicle: Klucel (hydroxypropylcellulose) (HPC)
[8] = dose: 100.0 mg/kg/injection, schedule: Q01DX001 (ip), vehicle: saline
[9] = dose: 200.0 mg/kg/injection, schedule: Q01DX001 (ip), vehicle: saline

## CCCNC1=C(C)C(=O)C2=C(C1=O)[C@H](COC(N)=O)[C@]1(OC)[C@@H]3N[C@@H]3CN21
dose: 2.9 mg/kg/injection, schedule: Q01DX001 (ip), vehicle: acetone
  T/C: 109 % of control
dose: 4.3 mg/kg/injection, schedule: Q01DX001 (ip), vehicle: acetone
  T/C: 117 % of control
dose: 4.5 mg/kg/injection, schedule: Q01DX009 (ip), vehicle: acetone
  T/C: 118 % of control
dose: 6.6 mg/kg/injection, schedule: Q01DX001 (ip), vehicle: saline
  T/C: 108 % of control
dose: 7.5 mg/kg/injection, schedule: Q01DX009 (ip), vehicle: acetone
  T/C: 86 % of control
dose: 9.9 mg/kg/injection, schedule: Q01DX001 (ip), vehicle: saline
  T/C: 101 % of control
dose: 15.0 mg/kg/injection, schedule: Q01DX001 (ip), vehicle: acetone
  T/C: 165 % of control
dose: 15.0 mg/kg/injection, schedule: Q01DX001 (ip), vehicle: saline
  T/C: 110 % of control
dose: 22.0 mg/kg/injection, schedule: Q01DX001 (ip), vehicle: acetone
  T/C: 92 % of control
dose: 22.0 mg/kg/injection, schedule: Q01DX001 (ip), vehicle: saline
  T/C: 113 % of control

## COc1ccc(C)cc1NC(=O)NNS(=O)(=O)c1ccc(C)cc1
[1]
  T/C: 93 % of control
[2]
  T/C: 93 % of control
[3]
  T/C: 93 % of control

## CC1(C)OC(C(O)CO)C(C2COC(=S)O2)O1 (centres undefined)
[4]
  T/C: 107 % of control
dose: 200.0 mg/kg/injection, schedule: Q04DX002 (ip), vehicle: saline
  T/C: 104 % of control
dose: 400.0 mg/kg/injection, schedule: Q04DX002 (ip), vehicle: saline
  T/C: 100 % of control

## CCc1ccc(NC(=O)Nc2ccc(Cl)cc2)cc1
dose: 100.0 mg/kg/injection, schedule: Q01DX009 (ip), vehicle: gum acacia
  T/C: 92 % of control
dose: 100.0 mg/kg/injection, schedule: Q04DX003 (ip), vehicle: gum acacia
  T/C: 92 % of control
dose: 200.0 mg/kg/injection, schedule: Q01DX009 (ip), vehicle: gum acacia
  T/C: 89 % of control
dose: 200.0 mg/kg/injection, schedule: Q04DX003 (ip), vehicle: gum acacia
  T/C: 92 % of control
dose: 400.0 mg/kg/injection, schedule: Q01DX009 (ip), vehicle: gum acacia
  T/C: 94 % of control
dose: 400.0 mg/kg/injection, schedule: Q04DX003 (ip), vehicle: gum acacia
  T/C: 93 % of control

## CCN=C(NCC)c1ccc(NC(=O)Nc2ccc(NC(=O)Nc3ccc(C(=NCC)NCC)cc3)cc2)cc1
dose: 0.87 mg/kg/injection, schedule: Q01DX Z (ip), vehicle: water
  T/C: 100 % of control
dose: 1.75 mg/kg/injection, schedule: Q01DX Z (ip), vehicle: water
  T/C: 100 % of control
dose: 3.5 mg/kg/injection, schedule: Q01DX Z (ip), vehicle: water
  T/C: 97 % of control
dose: 7.0 mg/kg/injection, schedule: Q01DX Z (ip), vehicle: water
  T/C: 103 % of control

## CC(N)CC12CC3CC(CC(C3)C1)C2 (centres undefined)
dose: 25.0 mg/kg/injection, schedule: Q04DX002 (ip), vehicle: saline
  T/C: 92 % of control
dose: 50.0 mg/kg/injection, schedule: Q04DX002 (ip), vehicle: saline
  T/C: 95 % of control
[4]
  T/C: 97 % of control

## CC(CN(C)C)CN1c2ccccc2CCc2ccccc21 (centres undefined)
dose: 4.37 mg/kg/injection, schedule: Q01DX009 (ip), vehicle: saline
  T/C: 101 % of control
dose: 8.75 mg/kg/injection, schedule: Q01DX009 (ip), vehicle: saline
  T/C: 101 % of control
dose: 17.5 mg/kg/injection, schedule: Q01DX009 (ip), vehicle: saline
  T/C: 98 % of control
dose: 17.5 mg/kg/injection, schedule: Q04DX003 (ip), vehicle: saline
  T/C: 102 % of control
dose: 35.0 mg/kg/injection, schedule: Q01DX009 (ip), vehicle: saline
  T/C: 107 % of control
dose: 35.0 mg/kg/injection, schedule: Q04DX003 (ip), vehicle: saline
  T/C: 102 % of control
dose: 70.0 mg/kg/injection, schedule: Q04DX003 (ip), vehicle: saline
  T/C: 104 % of control

## CC(=O)c1c[nH]c2c(O)ccc(O)c12
dose: 6.25 mg/kg/injection, schedule: Q04DX002 (ip), vehicle: Klucel (hydroxypropylcellulose) (HPC)
  T/C: 93 % of control
dose: 12.5 mg/kg/injection, schedule: Q04DX002 (ip), vehicle: Klucel (hydroxypropylcellulose) (HPC)
  T/C: 96 % of control
dose: 25.0 mg/kg/injection, schedule: Q04DX002 (ip), vehicle: Klucel (hydroxypropylcellulose) (HPC)
  T/C: 99 % of control and 107 % of control

## CC(C)C1C(C(C)C)N1C(=O)Nc1ccccc1 (centres undefined)
[5]
  T/C: 93 % of control
[6]
  T/C: 96 % of control
[7]
  T/C: 93 % of control

## ClC(Cl)(Cl)C/C=C\CBr
dose: 25.0 mg/kg/injection, schedule: Q01DX009 (ip), vehicle: acetone
  T/C: 98 % of control
dose: 50.0 mg/kg/injection, schedule: Q01DX009 (ip), vehicle: acetone
  T/C: 102 % of control
dose: 50.0 mg/kg/injection, schedule: Q04DX003 (ip), vehicle: acetone
  T/C: 97 % of control
dose: 100.0 mg/kg/injection, schedule: Q01DX001 (ip), vehicle: acetone
  T/C: 89 % of control
dose: 100.0 mg/kg/injection, schedule: Q01DX009 (ip), vehicle: acetone
  T/C: 93 % of control
dose: 100.0 mg/kg/injection, schedule: Q04DX003 (ip), vehicle: acetone
  T/C: 92 % of control
dose: 200.0 mg/kg/injection, schedule: Q01DX001 (ip), vehicle: acetone
  T/C: 91 % of control

## Nc1nc2ncc(CNc3ccc(C(=O)NC(CCC(=O)O)C(=O)O)cn3)nc2c(=O)[nH]1 (centres undefined)
dose: 25.0 mg/kg/injection, schedule: Q01DX009 (ip), vehicle: saline with Tween-80
  T/C: 104 % of control
dose: 37.5 mg/kg/injection, schedule: Q01DX009 (ip), vehicle: saline with Tween-80
  T/C: 114 % of control and 119 % of control
[1]
  T/C: 114 % of control
dose: 75.0 mg/kg/injection, schedule: Q01DX009 (ip), vehicle: saline with Tween-80
  T/C: 108 % of control

## CCCCCCC1c2ccccc2CC1CCCC (centres undefined)
dose: 50.0 mg/kg/injection, schedule: Q01DX001 (ip), vehicle: saline
  T/C: 102 % of control
[8]
  T/C: 104 % of control
[9]
  T/C: 102 % of control
dose: 400.0 mg/kg/injection, schedule: Q01DX001 (ip), vehicle: saline
  T/C: 98 % of control

## NC(N)=N/N=C(\CBr)c1ccc([N+](=O)[O-])cc1
dose: 15.0 mg/kg/injection, schedule: Q01DX Z (ip), vehicle: carboxymethylcellulose (CMC)
  T/C: 97 % of control
dose: 30.0 mg/kg/injection, schedule: Q01DX Z (ip), vehicle: carboxymethylcellulose (CMC)
  T/C: 92 % of control
dose: 30.0 mg/kg/injection, schedule: Q01DX Z (oral), vehicle: carboxymethylcellulose (CMC)
  T/C: 100 % of control
dose: 60.0 mg/kg/injection, schedule: Q01DX Z (ip), vehicle: carboxymethylcellulose (CMC)
  T/C: 98 % of control and 91 % of control
dose: 60.0 mg/kg/injection, schedule: Q01DX Z (oral), vehicle: carboxymethylcellulose (CMC)
  T/C: 103 % of control
dose: 120.0 mg/kg/injection, schedule: Q01DX Z (ip), vehicle: carboxymethylcellulose (CMC)
  T/C: 92 % of control
dose: 120.0 mg/kg/injection, schedule: Q01DX Z (oral), vehicle: carboxymethylcellulose (CMC)
  T/C: 102 % of control
dose: 240.0 mg/kg/injection, schedule: Q01DX Z (oral), vehicle: carboxymethylcellulose (CMC)
  T/C: 92 % of control

## O=[N+]([O-])c1ccc(Cl)c2ccncc12
[1]
  T/C: 102 % of control
[2]
  T/C: 105 % of control
[3]
  T/C: 105 % of control

## CCC(CCC(C)C1CCC2C3CC=C4CC(OC5OC(CO)C(O)C(O)C5O)CCC4(C)C3CCC12C)C(C)C (centres undefined)
dose: 100.0 mg/kg/injection, schedule: Q01DX Z (ip), vehicle: Klucel (hydroxypropylcellulose) (HPC)
  T/C: 92 % of control
dose: 100.0 mg/kg/injection, schedule: Q04DX003 (ip), vehicle: Klucel (hydroxypropylcellulose) (HPC)
  T/C: 106 % of control
dose: 200.0 mg/kg/injection, schedule: Q01DX Z (ip), vehicle: Klucel (hydroxypropylcellulose) (HPC)
  T/C: 91 % of control
dose: 200.0 mg/kg/injection, schedule: Q04DX003 (ip), vehicle: Klucel (hydroxypropylcellulose) (HPC)
  T/C: 104 % of control
dose: 400.0 mg/kg/injection, schedule: Q01DX Z (ip), vehicle: Klucel (hydroxypropylcellulose) (HPC)
  T/C: 91 % of control
dose: 400.0 mg/kg/injection, schedule: Q04DX003 (ip), vehicle: Klucel (hydroxypropylcellulose) (HPC)
  T/C: 90 % of control

## ONc1ccccn1
[8]
  T/C: 95 % of control
[9]
  T/C: 95 % of control

## CCOC(=O)c1nc(N)nc(N)c1Oc1ccccc1
dose: 50.0 mg/kg/injection, schedule: Q01DX001 (ip), vehicle: Klucel (hydroxypropylcellulose) (HPC)
  T/C: 92 % of control
[5]
  T/C: 93 % of control
[6]
  T/C: 92 % of control

## C[n+]1ccc(/C=C/c2ccc(O)c3ccccc23)cc1
dose: 75.0 mg/kg/injection, schedule: Q01DX001 (ip), vehicle: saline
  T/C: 100 % of control
dose: 150.0 mg/kg/injection, schedule: Q01DX001 (ip), vehicle: saline
  T/C: 101 % of control

## CS(=O)(=O)CCC(NC(=O)NCCCl)C(=O)O (centres undefined)
[5]
  T/C: 104 % of control
[6]
  T/C: 96 % of control
[7]
  T/C: 100 % of control
